Assay results as given in US20190192618A1 (priority 2016, published 2019).
Like-named read-outs stand apart in the source and are kept apart here. Bridge positions count the residues as written; N and C are the ends. Square brackets hold non-standard residues; d marks the D form. Peptide text beside a SMILES is read from it. Dab = NCC[C@H](N)C(=O)O

Columns and labels:
hERG potassium channel = target: T1, hERG potassium channel (Homo sapiens, UniProt Q12809); test: hERG current inhibition, single cell patch clamp in HEK293 cells; assay type: cell-based
T1 construct: expressed in transfected cells
Protocol: Currents were recorded via single cell patch clamp.

[1] = rat, following 14 days of repeated dosing
in vivo [2] = settings: male, monkey, plasma, 20 mg/kg
Protocol: (§1) PK analysis was performed using Phoenix® WinNonlin® Version 6.3 (Pharsight Corp. [Mountain View, Calif.]). […] The standard species body weights were assumed to perform allometric scaling purposes. For scaling, mouse, rat, monkey, and human weight were assumed to be 0.02, 0.25, 5, and 70 kg, respectively. PK data from only male animals were available for scaling.
(§2) A MixRatio (additive and multiplicative) weighting was applied for all PK modeling.
(§3) Single dose simulations were done using the low clearance estimate and high clearance estimate obtained from allometric scaling. […] Day 1 data was unavailable for rat. Only 2-3 measurable time points were used in the mouse PK data.

[3] = Efficacy studies in mice (mouse thigh studies); assay type: in vivo; settings: mouse thigh studies with SPR741 and rifampin
Protocol: A 70 kg human weight was used in all models.
Pharmacologic HED was then calculated using the equation below: […]

[4] = GLP 14 day repeat dose toxicology study in monkeys incl. CNS assessment; settings: cynomolgus monkey, in vivo
Protocol: Histopathologic assessment was conducted on tissue sections stained with hematoxylin and eosin (H&E).
The neurological assessment was performed on study day 9 or 10 and compared to both pre-test data (study day −6 or −7) as well as the vehicle control.

in vivo [5] = settings: male, mouse, plasma, 10 mg/kg
Protocol: as §1, §2, §3

in vivo [6] = settings: Sprague-Dawley, rat, plasma, iv, 1-hour IV infusion twice daily; for AUC(0-t): AUC(0-24)
in vivo [7] = settings: male, rat, plasma, 10 mg/kg
Protocol: as §1, §2, §3

[8] = GLP 14 day repeat dose study in rats, toxicology; settings: rat
Protocol: Parameters assessed during the in-life phase of the study included weekly body weights, clinical observations, survival, food consumption, ophthalmology, clinical pathology, and urine and plasma toxicokinetics. At necropsy, gross observations were recorded, organ weights were measured, and specific tissues were collected. Histopathologic assessment was conducted on tissue sections stained with hematoxylin and eosin (H&E).
The use of an escalation phase was due to the acute histamine and/or complement mediated reactions commonly seen in rats with a broad range of polymyxins.
For toxicology assessment, all animals were observed twice daily for mortality and moribundity. Clinical examinations were performed daily, and detailed physical examinations were performed weekly. Ophthalmic examinations were performed during once prior to study initiation and once during the study. Clinical pathology parameters (including Blood Urea Nitrogen and Serum Creatinine) were analyzed for all animals assigned to the scheduled necropsies. Complete necropsies were conducted on all animals, and selected organs were weighed at the scheduled necropsies. […] Gross lesions and infusion sites were examined from all animals in the low-dose group at the primary necropsy. Recovery was assessed in the mid-dose group and the control group following a 28-day non-dosing period. Following the 28-day non-dosing (recovery) period, complete necropsies were conducted on all animals, and selected organs were weighed at the scheduled necropsy. Selected tissues were examined microscopically from all animals.

[9] = Cardiopulmonary safety pharmacology study in monkeys; settings: for Body Temperature / Heart Rate / Mean Arterial Blood Pressure / QTc Interval / Respiratory Rate: monkey, in vivo
Protocol: The monkeys in the study were telemeterized prior to study start. Data was collected in one minute intervals over a 24 hour period. The data was reported in 15 minute intervals over the first three hours.

[10] = human, fixed exponent, monkey PK data
[11] = human, fixed exponent, mouse PK data
[12] = human, fixed exponent, rat PK data
[13] = human, floating exponent, mouse, rat and monkey PK data
[14] = human, floating exponent, rat and monkey PK data
[15] = 5 mg/kg/day, 5 mg/kg/day, study day 1
[16] = 5 mg/kg/day, 5 mg/kg/day, study day 14
[17] = 10 mg/kg/day, 10 mg/kg/day, study day 1
[18] = 10 mg/kg/day, 10 mg/kg/day, study day 14
[19] = 15 mg/kg/day, 15 mg/kg/day, study day 1
[20] = 15 mg/kg/day, 15 mg/kg/day, study day 14

T1 sequence (Q12809 whole entry): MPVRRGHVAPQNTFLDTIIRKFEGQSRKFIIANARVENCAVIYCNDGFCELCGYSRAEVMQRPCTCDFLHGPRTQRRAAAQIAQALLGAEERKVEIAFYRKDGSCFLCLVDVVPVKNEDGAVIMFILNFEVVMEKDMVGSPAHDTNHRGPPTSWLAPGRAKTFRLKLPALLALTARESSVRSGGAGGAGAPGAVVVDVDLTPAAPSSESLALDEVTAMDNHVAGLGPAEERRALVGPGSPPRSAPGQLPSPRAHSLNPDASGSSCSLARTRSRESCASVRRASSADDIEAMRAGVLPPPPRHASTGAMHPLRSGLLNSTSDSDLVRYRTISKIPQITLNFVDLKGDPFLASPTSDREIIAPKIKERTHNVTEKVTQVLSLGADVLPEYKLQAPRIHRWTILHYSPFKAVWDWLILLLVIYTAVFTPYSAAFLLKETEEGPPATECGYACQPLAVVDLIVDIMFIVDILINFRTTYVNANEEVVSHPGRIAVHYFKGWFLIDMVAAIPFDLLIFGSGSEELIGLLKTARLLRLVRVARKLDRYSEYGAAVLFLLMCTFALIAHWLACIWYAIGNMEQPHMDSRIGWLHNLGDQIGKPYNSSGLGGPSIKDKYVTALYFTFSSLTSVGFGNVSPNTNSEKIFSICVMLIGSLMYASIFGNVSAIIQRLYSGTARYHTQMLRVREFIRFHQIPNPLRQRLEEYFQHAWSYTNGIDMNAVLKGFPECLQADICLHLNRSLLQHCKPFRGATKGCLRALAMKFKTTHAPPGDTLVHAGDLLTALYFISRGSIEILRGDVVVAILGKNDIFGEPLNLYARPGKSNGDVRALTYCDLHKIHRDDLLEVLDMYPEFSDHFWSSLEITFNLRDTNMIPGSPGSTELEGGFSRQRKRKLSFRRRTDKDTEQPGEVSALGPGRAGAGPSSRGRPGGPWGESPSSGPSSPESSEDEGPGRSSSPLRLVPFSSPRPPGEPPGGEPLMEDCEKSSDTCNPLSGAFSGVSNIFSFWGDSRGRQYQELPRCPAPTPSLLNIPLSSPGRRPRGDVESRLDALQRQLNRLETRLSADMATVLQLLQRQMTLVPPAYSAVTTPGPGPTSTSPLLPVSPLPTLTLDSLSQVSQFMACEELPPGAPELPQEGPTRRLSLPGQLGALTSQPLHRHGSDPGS

COc1cc(N)c(Cl)cc1C(=O)NC1CCN(CCCOc2ccc(F)cc2)CC1OC (stereo not shown) [Cisapride, reference compound]
inhibition at 0.047 μg/mL (hERG potassium channel; human): 79.8%

CC(=O)N[C@H](C(=O)N[C@H](CO)C(=O)N[C@H]1CCNC(=O)[C@H]([C@@H](C)O)NC(=O)[C@H](CCN)NC(=O)[C@H](CCN)NC(=O)[C@H](CC(C)C)NC(=O)[C@@H](Cc2ccccc2)NC(=O)[C@H](CCN)NC1=O)[C@@H](C)O [SPR741, Acetyl-Thr-dSer-cy[Dab-Dab-dPhe-Leu-Dab-Dab-Thr]] (Ac-T[dS][Dab][Dab][dF]L[Dab][Dab]T; lactam 3-C)
Systemic exposure versus dose [1]: dose dependent proportional systemic exposure
Vd (in vivo [2]): 0.238 L/kg
clearance (in vivo [2]): 2.28 mL/min/kg
AUC value of efficacy data [3]: 60 µg·h/mL
CL (human 70 kg, fixed exponent, monkey PK data): 70.8 mg/h/kg
CL (human 70 kg, fixed exponent, mouse PK data): 57.5 mg/h/kg
CL (human 70 kg, fixed exponent, rat PK data): 103 mg/h/kg
CL [10]: 1.18 mL/min/kg
T1/2 [10]: 2.33 h
CL [11]: 0.958 mL/min/kg
T1/2 [11]: 2.16 h
Vd [11]: 0.179 L/kg
CL [12]: 1.72 mL/min/kg
T1/2 [12]: 2.31 h
Vd [12]: 0.345 L/kg
CL [13]: 1.5 mL/min/kg
T1/2 [13]: 2.44 h
Vd [13]: 0.315 L/kg
CL [14]: 0.847 mL/min/kg
T1/2 [14]: 2.34 h
Vd [14]: 0.172 L/kg
IC50 (hERG potassium channel): could not be calculated
Change in mean hERG-mediated potassium currents (hERG potassium channel; concentrations up to 300 μg/mL): no meaningful change
inhibition at 10 μg/mL (hERG potassium channel; human): 0.08%
inhibition at 30 μg/mL (hERG potassium channel; human): -0.09%
inhibition at 100 μg/mL (hERG potassium channel; human): 1.62%
inhibition at 300 μg/mL (hERG potassium channel; human): 3.87%
NOAEL at 14 days ([4]; both): 40 mg/kg/day
Reversibility of nephrotoxicity [4]: fully reversible
Vd (in vivo [5]): 0.179 L/kg
clearance (in vivo [5]): 7.37 mL/min/kg
AUC(0-t) (in vivo [6]; [15]): 8200 ng·h/mL
AUC(0-t) (in vivo [6]; [16]): 8300 ng·h/mL
Cmax (in vivo [6]; [15]): 3400 ng/mL
Cmax (in vivo [6]; [16]): 3300 ng/mL
AUC(0-t) (in vivo [6]; [17]): 25000 ng·h/mL
AUC(0-t) (in vivo [6]; [18]): 20300 ng·h/mL
Cmax (in vivo [6]; [17]): 9500 ng/mL
Cmax (in vivo [6]; [18]): 6700 ng/mL
AUC(0-t) (in vivo [6]; [19]): 47400 ng·h/mL
AUC(0-t) (in vivo [6]; [20]): 32900 ng·h/mL
Cmax (in vivo [6]; [19]): 14900 ng/mL
Cmax (in vivo [6]; [20]): 10800 ng/mL
Vd (in vivo [7]): 0.345 L/kg
clearance (in vivo [7]): 7.05 mL/min/kg
Tolerability ([8]; dose levels higher than 5 mg/kg): exhibited toxicity
Tolerability ([8]; in vivo, 5 mg/kg): well tolerated
% BUN increase relative to control (mg/dL) ([8]; in vivo, 10 mg/kg/day): 34%
% BUN increase relative to control (mg/dL) ([8]; in vivo, 15 mg/kg/day): 59%
% Control CRN ([8]; in vivo, 15 mg/kg/day): 59%
Body Temperature ([9]; 5 mg/kg): 38.3 °C
Heart Rate ([9]; 5 mg/kg): 142 bpm
Mean Arterial Blood Pressure ([9]; 5 mg/kg): 105 mm Hg
QTc Interval ([9]; 5 mg/kg): 220 ms
Respiratory Rate ([9]; 5 mg/kg): 27
Body Temperature ([9]; 10 mg/kg): 38.3 °C
Heart Rate ([9]; 10 mg/kg): 141 bpm
Mean Arterial Blood Pressure ([9]; 10 mg/kg): 104 mm Hg
QTc Interval ([9]; 10 mg/kg): 222 ms
Respiratory Rate ([9]; 10 mg/kg): 25
Body Temperature ([9]; 20 mg/kg): 38.7 °C
Heart Rate ([9]; 20 mg/kg): 145 bpm
Mean Arterial Blood Pressure ([9]; 20 mg/kg): 97 mm Hg
QTc Interval ([9]; 20 mg/kg): 220 ms
Respiratory Rate ([9]; 20 mg/kg): 26
SPR741-related clinical signs or changes in body weight, body temperature, blood pressures, heart rate, ECG intervals, respiratory rate, tidal volume, minute volume ([9]; monkeys, cardiopulmonary study): no SPR741-related clinical signs
